How the values were obtained:
Assay type in all cases: functional
[1] = system: Trypanosoma brucei rhodesiense; assay: Antiparasitic activity against Trypanosoma brucei rhodesiense STIB 900 trypomastigote bloodstream form assessed as growth inhibition at 0.8 ug/ml after 72 hrs by resazurin dye-based fluorometric analysis relative to control; settings: STIB 900, 72 h, read-out: GI
[2] = system: Trypanosoma brucei rhodesiense; assay: Antiparasitic activity against Trypanosoma brucei rhodesiense STIB 900 trypomastigote bloodstream form assessed as growth inhibition at 4.8 ug/ml after 72 hrs by resazurin dye-based fluorometric analysis relative to control; settings: STIB 900, 72 h, read-out: GI
[3] = system: Plasmodium falciparum; assay: (§1) Antiparasitic activity against intraerythrocytic form of chloroquine/pyrimethamine-resistant Plasmodium falciparum K1 infected in human RBC assessed as growth inhibition at 4.8 ug/ml preincubated for 48 hrs followed by [3H]-hypoxanthine addition measured after 24 hrs by liquid scintillation counting analysis relative to control; settings: read-out: GI
[4] = system: Plasmodium falciparum; assay: as §1, with “0.8” for “4.8”; settings: read-out: GI
[5] = system: Leishmania donovani; assay: Antiparasitic activity against Leishmania donovani MHOM-ET-67/L82 axenic amastigotes assessed as growth inhibition at 4.8 ug/ml after 72 hrs by resazurin dye-based fluorometric analysis relative to control; settings: MHOM-ET-67/L82, 72 h, read-out: GI
[6] = system: Leishmania donovani; assay: Antiparasitic activity against Leishmania donovani MHOM-ET-67/L82 axenic amastigotes assessed as growth inhibition at 0.8 ug/ml after 72 hrs by resazurin dye-based fluorometric analysis relative to control; settings: MHOM-ET-67/L82, 72 h, read-out: GI
[7] = system: Trypanosoma cruzi; assay: Antiparasitic activity against Trypanosoma cruzi Tulahuen C4 intracellular amastigotes infected in rat L6 cells assessed as growth inhibition at 0.8 ug/ml after 96 hrs by CPRG/Nonidet reagent based photometric analysis relative to control; settings: Tulahuen C4, L6, 96 h, read-out: GI
[8] = system: Trypanosoma cruzi; assay: Antiparasitic activity against Trypanosoma cruzi Tulahuen C4 intracellular amastigotes infected in rat L6 cells assessed as growth inhibition at 4.8 ug/ml after 96 hrs by CPRG/Nonidet reagent based photometric analysis relative to control; settings: Tulahuen C4, L6, 96 h, read-out: GI

| Compound | inhibition of growth at 0.8 µg/mL [1] [%] | inhibition of growth at 4.8 µg/mL [2] [%] | inhibition of growth at 4.8 µg/mL [3] [%] | inhibition of growth at 0.8 µg/mL [4] [%] | inhibition of growth at 4.8 µg/mL [5] [%] | inhibition of growth at 0.8 µg/mL [6] [%] | inhibition of growth at 0.8 µg/mL [7] [%] | inhibition of growth at 4.8 µg/mL [8] [%] |
| --- | --- | --- | --- | --- | --- | --- | --- | --- |
| Nc1nc(N)nc(Nc2ccc([As]3SCC(CO)S3)cc2)n1 (centres undefined) [MELARSOPROL] | 44.4 | 98.3 | – | – | – | – | – | – |
| C[C@@H]1CC[C@H]2[C@@H](C)C(=O)O[C@@H]3O[C@@]4(C)CC[C@@H]1[C@]32OO4 [ARTEMISININ] | – | – | 100 | 80 | – | – | – | – |
| CC(=O)c1ccc(S(=O)(=O)n2nnc3ccccc32)cc1 | 2.8 | 4.9 | 5.6 | 0 | 41.6 | 17.3 | 0 | 6.1 |
| O=C(Cn1ccnc1[N+](=O)[O-])NCc1ccccc1 [BENZNIDAZOLE] | – | – | – | – | – | – | 63.3 | 98.5 |
| O=S(=O)(c1cccc(C(F)(F)F)c1)N1CCCc2ccccc21 | 2.4 | 2.5 | 68 | 6.6 | 73.1 | 23.7 | 10.4 | 62.6 |
| CC(=O)Nc1ccc(S(=O)(=O)N2c3ccccc3CC2C)cc1 (centres undefined) | 0 | 1.7 | 15.6 | 4.2 | 14.7 | 6.4 | 0 | 46.7 |
| O=S(=O)(c1ccc(C(F)(F)F)cc1)N1CCc2ccccc2C1 | 0.7 | 5.8 | 22.7 | 0.6 | 58.3 | 40.8 | 0 | 27.3 |
| CC(C)(C)c1ccc(S(=O)(=O)n2nnc3ccccc32)cc1 | 8.8 | 0 | 0 | 0 | 42.8 | 13.3 | 8.5 | 7.4 |
| COc1ccc(S(=O)(=O)N2CCc3ccccc32)cc1 | 0 | 0 | 11.6 | 0 | 42.6 | 18.6 | 12.1 | 27.4 |
| O=[N+]([O-])c1ccccc1S(=O)(=O)N1CCc2ccccc2C1 | 10.8 | 6.9 | 19.8 | 0 | 57 | 17.8 | 3.1 | 27.5 |
| CC1Cc2ccccc2N1S(=O)(=O)c1cccc([N+](=O)[O-])c1 (centres undefined) | 7 | 12.6 | 62.6 | 14.9 | 66.2 | 26 | 2.5 | 31.6 |
| CC(C)(C)c1ccc(S(=O)(=O)n2ccc3ccccc32)cc1 | 0 | 0 | 92.3 | 13.9 | 92.2 | 27.3 | 0 | 0 |
| Cc1ccc(S(=O)(=O)N2CCc3ccccc32)cc1 | 3.1 | 0 | 20 | 0 | 63.7 | 8.1 | 0 | 14.4 |
| CC(C)(C)c1ccc(S(=O)(=O)N2CCc3ccccc3C2)cc1 | 10.8 | 8.7 | 86 | 11.6 | 100 | 31.6 | 0 | 26.7 |
| O=S(=O)(c1ccc(C(F)(F)F)cc1)N1CCc2ccccc21 | 2.2 | 0 | 59.8 | 0 | 68.8 | 12.6 | 3.4 | 10.8 |
| Cc1cc(C)c(C)c(S(=O)(=O)n2nnc3ccccc32)c1C | 0.7 | 4.7 | 0.1 | 0 | 45.6 | 28.4 | 0 | 2.9 |
| CC(C)(C)c1ccc(S(=O)(=O)N2CCc3ccccc32)cc1 | 1.9 | 5.8 | 99.1 | 29.5 | 100 | 49.4 | 5.2 | 54.1 |
| O=S(=O)(c1ccc(Br)cc1)N1CCc2ccccc21 | 5.3 | 0 | 63.5 | 9.8 | 77.7 | 17.9 | 4.2 | 28.1 |
| O=S(=O)(c1ccc(Cl)cc1)N1CCc2ccccc21 | 0 | 0 | 63.7 | 3.7 | 73.6 | 6.9 | 0 | 1.5 |
| CC(=O)c1ccc(S(=O)(=O)N2CCc3ccccc3C2)cc1 | 0 | 0 | 9.7 | 0.3 | 46.1 | 20.1 | 0 | 13.4 |
| O=[N+]([O-])c1ccccc1S(=O)(=O)N1CCCc2ccccc21 | 6.2 | 17.1 | 38 | 3.5 | 50.1 | 10.1 | 0 | 26.9 |
| O=S(=O)(c1ccc(C(F)(F)F)cc1)N1CCCc2ccccc21 | 7.2 | 18.1 | 75.3 | 7.2 | 85 | 20.1 | 0 | 22.6 |
| CC1Cc2ccccc2N1S(=O)(=O)c1cccc(C(F)(F)F)c1 (centres undefined) | 0 | 0 | 77.1 | 15.1 | 77.6 | 13.5 | 0 | 5.7 |
| CC(=O)c1ccc(S(=O)(=O)N2c3ccccc3CCC2C)cc1 (centres undefined) | 0 | 1.5 | 29.8 | 4 | 45.7 | 6 | 0 | 91.9 |
| CC(=O)c1ccc(S(=O)(=O)N2c3ccccc3CC2C)cc1 (centres undefined) | 0 | 0.4 | 46.3 | 7.3 | 26.8 | 0 | 0 | 23.7 |
| O=S(=O)(c1ccc(C(F)(F)F)cc1)n1ccc2ccccc21 | 1.4 | 0 | 53.2 | 4.3 | 52.8 | 15.9 | 0 | 0 |
| O=S(=O)(c1ccc(F)cc1)N1CCc2ccccc21 | 12.6 | 19.2 | 28.2 | 1.5 | 62.7 | 11 | 0 | 0.2 |
| O=[N+]([O-])c1ccccc1S(=O)(=O)n1ccc2ccccc21 | – | – | – | – | – | – | < 40 | – |
